These are literature values, as cited in publication PMC11238383, “A review on the cultivation, bioactive compounds, health-promoting factors and clinical trials of medicinal mushrooms Taiwanofungus camphoratus, Inonotus obliquus and Tropicoporus linteus” (Fungal Biology and Biotechnology, 2024).

In brackets after ≈: the same amount, converted by molar mass. Read-outs that look alike come from different tables or passages of the source.

For data set [1], the system named is Polyinosinic-polycytidylic acid (poly IC)-induced RAW 264.7 cells.
Another data set deals with P. gingivalis. As to conditions: ref [131], [132], [133].
In a further data set the target is H1N1 neuraminidase. To be noted: ref [13].
For the next data set, the system named is Influenza A H1N1 virus. The arrangement: method as in Hwang et al. [13]. To be noted: 10 uM; ref Hwang et al. [13].
The conditions of data set [2]: for antioxidant activity: ref Lee et al. [226]; for reducing power: ref [133].
Another data set deals with MDA-MB-231 cells. To be noted: 10 µg/mL alone; ref [226].
Data set [3] concerns human cancer cells (U251, HL60, SW480, and A549). As to conditions: ref [63].
For another data set, the system named is normal cells (LO2). As to conditions: ref [63].
The test system of data set [4] is Oleic and palmitic acids (O/P) lipid accumulation-induced HepG2 cells. Further details: method as in Chiu et al. [138]. As to conditions: ref Chiu et al. [138].
The next data set has as its system MIN6N beta-cells. The arrangement: method as in Lee et al. [235]. As to conditions: 10–70 uM, dose-dependent, ref Lee et al. [235].
Data set [5] relates to Severe acute respiratory syndrome coronavirus 2 (SARS-CoV-2) virus-infected HepG2 cells. The arrangement: method as in Li et al. [35], [38]. To be noted: ref Li et al. [35], [38].
The test system of data set [6] is AGS, MCF-7, and PC3 cancer cells. The arrangement: method as in PMID 32899899. As to conditions: ref [95].
A further data set relates to NO. Further details: method as in Park et al. [99]. To be noted: ref Park et al. [99].
For data set [7], the system named is mouse melanoma and human lung cancer cells. Further details: method as in PMID 18239302. As to conditions: ref [135].
A further data set has as its system U251 and MCF-7. The arrangement: method as in PMID 31891260. To be noted: ref [61].
On the set-up of data set [8]: method as in PMID 31891260. As to conditions: ref [61].
In data set [9] the test system is human adenocarcinoma and human lung carcinoma cell lines. Further details: method as in doi:10.1016/j.jff.2020.104025. As to conditions: ref [97].
Data set [10] deals with glioblastoma-xenografted mice. Further details: method as in Yang et al. [70]. To be noted: in vivo; ref Yang et al. [70].
For another data set, the system named is human glioblastoma cells. Further details: method as in Yang et al. [70]. To be noted: in vitro; ref Yang et al. [70].
For another data set, the system named is aldose reductase. Further details: method as in Lee et al. [136]. To be noted: ref Lee et al. [136].
The next data set relates to A549 and HeLa cell lines. As to conditions: ref [105].
The test system of data set [11] is H2O2)-injured human neuroblastoma cells. The arrangement: method as in PMID 33084385. As to conditions: ref [108].
Details of data set [12]: method as in Zhang et al. [179]. To be noted: DPPH assay; ref Zhang et al. [179].
Data set [13] concerns inducible-nitric oxide synthase (iNOS) protein. The arrangement: method as in PMID 33434790. To be noted: ref [107].

On to 4-acetylantroquinonol B, for which, in data set [1] (ref Tu et al. [186], read-out: IC50 of NO production), the IC50 is 0.57 µM. Besides, the NO production entry in data set [1] (ref [72]) was “significantly inhibited”.

For `C=C1CCCC(C)(C)C1CC/C(C)=C/CO` (single isomer, unassigned; (-)) [(-)-trans-γ-monocyclofarnesol], the antimicrobial activity entry with P. gingivalis is “antimicrobial effects”.

Regarding `CC(=O)C=Cc1ccc(O)c(O)c1` [4-(3,4-Dihydroxyphenyl)-3-buten-2-one], at H1N1 neuraminidase, the IC50 was 52 µM and the neuraminidase activity entry is given as “inhibit neuraminidase activity”. Also, the visible cytopathic effects with Influenza A H1N1 virus is listed as 10 uM of both inhibited the formation of visible cytopathic effects, with IC50 values lower than Oseltamivir. Moreover, in data set [2], the antioxidant activity result is “Potent antioxidant activity, with higher antioxidant activity than BHA and Trolox in FRAP assay”. For the molecule `O=c1[nH]cc(F)c(=O)[nH]1` [5-fluorouracil], the “inhibition in cell growth” value in the data set with MDA-MB-231 cells is 12.6%.

Take `C=C1CC(O)CC(C)(C)C1/C=C/C(C)=C/C(=O)O` (stereo not shown) [(2E,4E)-4′-Hydroxy-γ-ionylideneacetic acid]: in data set [2], the reducing power entry is reported as “weak reducing power”. In the case of `C=C1CCCC(C)(C)C1/C=C/C(C)=C/C(=O)O` (stereo not shown) [(2E,4E)-γ-Ionylideneacetic acid], in data set [2], the reducing power entry was “weak reducing power”. For the molecule `C=C1CCCC(C)(C)C1C=CC(C)=CC(=O)O` (stereo not shown) [( +)-γ-ionylideneacetic acid], the antimicrobial activity entry in the data set with P. gingivalis is reported as “did not show any detectable activities”.

Take `C=C(CC[C@@H](C)[C@H]1CC[C@@]2(O)C3=C(C(=O)C[C@]12C)[C@@]1(C)CCC(=O)[C@@H](C)[C@@H]1CC3=O)C(C)C(=O)OCC` (stereo partly shown) [Antcamphin Z]: the cytotoxicity entry in [3] is “potent cytotoxic activities”. Also, in the data set with normal cells (LO2), the “effect on normal cells” value is “no significant effects on normal cells”. With `O=C(O)/C=C/c1ccc(O)c(O)c1` [Caffeic acid, caffeic acid], the antioxidant activity result in data set [2] was “Potent antioxidant activity, with higher antioxidant activity than BHA and Trolox in FRAP assay”. For the molecule `O=c1cc(O)cc(/C=C/c2ccc(O)c(O)c2)o1` [Hispidin, hispidin], the lipid accumulation entry in [4] is “Significant reduction in lipid accumulation”. Moreover, the “highest ROS scavenging activity” value is listed as 10–70 uM had notable reactive oxygen species (ROS) scavenging activity in a dose-dependent manner, with the highest activity being 65% with MIN6N beta-cells and “about 65%” in the data set on MIN6N beta-cells (listed as hispidin). Further, the ACE2 gene expression result in data set [5] is “Reduced the expression of angiotensin-converting enzyme 2 (ACE2) gene”. `CC(C)=CC[C@@H](O)[C@@H](C)[C@H]1CC[C@@]2(C)C3=C(CC[C@]12C)[C@@]1(C)CC[C@H](O)C(C)(C)[C@@H]1CC3` [Inotodiol]: the anti-proliferative activity result in data set [6] was “anti-proliferative activities”. For the same molecule, the NO inhibition result with NO is listed as “NO-inhibiting effects”. As for `CCOC(=O)C1=C[C@@H](OC(CC)CC)[C@H](NC(C)=O)[C@@H](N)C1` [Oseltamivir, reference compound], on H1N1 neuraminidase, the IC50 is 64 µM. Take `O=c1oc(/C=C/c2ccc(O)c(O)c2)cc2oc(-c3ccc(O)c(O)c3)cc12` [Phellifuropyranone A]: the antiproliferative activity result in [7] was “antiproliferative activity”.

For `CC1=CC[C@@H]([C@@](C)(O)[C@@H]2C[C@H]2C(C)(C)O)CC1` [Phellilane L], the antimicrobial activity result with P. gingivalis was “antimicrobial activities”. Take `C/C=C(\CO)CC[C@@H](C)[C@H]1CC[C@H]2C3=C(C(=O)C[C@]12C)[C@@]1(C)CC[C@@H](O)[C@](C)(O)[C@@H]1C[C@@H]3O` [antcamphorol C]: the cytotoxicity result in the data set with U251 and MCF-7 is listed as “cytotoxic activities”. Consider `C=C(CC[C@@H](C)[C@H]1CC[C@H]2C3=CC[C@H]4[C@H](C)[C@@H](O)CC[C@]4(C)C3=C[C@@H](O)[C@]12C)C(C)C` [antcamphorol H], for which, in the data set with U251 and MCF-7, the cytotoxicity result is listed as “cytotoxic activities”. `C=C(CC[C@@H](C)[C@H]1CC[C@H]2C3=C(C(=O)C[C@]12C)[C@@]1(C)CCC(=O)[C@@H](C)[C@@H]1C[C@H]3O)C(C)C` [antcamphorol J]: the ROS scavenging result in data set [8] is “ROS scavenging abilities”. Regarding `C=C(C)[C@@H]1CC[C@]2(CO)CC[C@]3(C)[C@H](CC[C@@H]4[C@@]5(C)CC[C@H](O)C(C)(C)[C@@H]5CC[C@]43C)[C@@H]12` [betulin], the proliferation entry in data set [9] is listed as “inhibited the proliferation”. Turning to `C=C(C)[C@@H]1CC[C@]2(C(=O)O)CC[C@]3(C)[C@H](CC[C@@H]4[C@@]5(C)CC[C@H](O)C(C)(C)[C@@H]5CC[C@]43C)[C@@H]12` [betulinic acid], the proliferation entry in data set [9] is on record as “inhibited the proliferation”. As to `COC1=C(OC)C(=O)C(C)=CC1=O` [coenzyme Q0, 2,3-dimethoxy-5-methyl-1,4-benzoquinone], the “apoptosis and autophagic cell death” value was “inducing apoptosis and autophagic cell death” in data set [10]; “inducing apoptosis and autophagic cell death” in the data set with human glioblastoma cells. `CC1=CC(=O)[C@H](c2c(O)cc(/C=C/c3ccc(O)c(O)c3)oc2=O)[C@@H](c2ccc(O)c(O)c2)O1` [davallialactone]: the aldose reductase inhibition entry in the data set on aldose reductase is “capable of inhibiting aldose reductase”. Consider `O=c1oc2c(O)c(O)cc3c(=O)oc4c(O)c(O)cc1c4c23` [ellagic acid], for which the aldose reductase inhibition entry in the data set on aldose reductase was “capable of inhibiting aldose reductase”. For `CC(C)(O)[C@H]1CC[C@H]([C@H]2CC[C@@]3(C)C4=C(CC[C@]23C)[C@@]2(C)CC[C@H](O)C(C)(C)[C@@H]2CC4)[C@H]1O` [inonotsutriol A], in the data set on NO, the NO inhibition result was “NO-inhibiting effects”. As for `C[C@H](/C=C/C=O)[C@H]1CC[C@@]2(C)C3=C(CC[C@]12C)[C@@]1(C)CC[C@H](O)C(C)(C)[C@@H]1CC3` [inonotusane C], the cytotoxicity result with A549 and HeLa cell lines is “cytotoxic activities”.

In the case of `CC1=CC(=O)C2(O1)c1c(cc(/C=C/c3ccc(O)c(O)c3)oc1=O)OC2c1ccc(O)c(O)c1` (stereo not shown) [inoscavin A], the cell viability result in data set [11] is on record as “improve cell viabilities”. In the case of `C=C1CCCC(C)(C)[C@H]1[C@H]1O[C@@H]1/C(C)=C/C(=O)O` [phellidene E], the antimicrobial activity result in the data set with P. gingivalis is “did not show any detectable activities”. As for `O=C1C=C(/C=C/c2ccc(O)c(O)c2)OC12C(c1cc3oc(=O)c4cc(O)c(O)cc4c3c(=O)o1)=Cc1cc(O)c(O)cc12` (stereo not shown) [phelligridin G], the antiproliferative activity entry in data set [7] is given as “antiproliferative activity”. As to `CC(C)(C)c1cc(O)ccc1O` [tert-Butylhydroquinone (TBHQ), tert-Butylhydroquinone], the EC50 in [12] was 11.2 µg/mL (≈ 67.4 µM). As for `CC(C)=CCC[C@@H](C(=O)O)[C@H]1CC[C@@]2(C)C3=C(CC[C@]12C)[C@@]1(C)CC[C@H](O)C(C)(C)[C@@H]1CC3` [trametenolic acid], in [6], the anti-proliferative activity result is “anti-proliferative activities”. Further, the NO inhibition entry in the data set with NO is “NO-inhibiting effects”.

Take `O=C1O[C@H]([C@@H](O)CO)C(O)=C1O` [vitamin C, ascorbic acid]: the EC50 in [12] is recorded as 6 µg/mL (≈ 34.1 µM).

Turning to antcamphorol G, the ROS scavenging entry in data set [8] was “ROS scavenging abilities”. Regarding antcamphorol I, the ROS scavenging entry in [8] is listed as “ROS scavenging abilities”.

Regarding antroquinonol Y, the cytotoxicity result in [3] is “significant cytotoxic effects”. In addition, in the data set with normal cells (LO2), the “effect on normal cells” value is recorded as “without affecting normal cells”. inonotusol I: in data set [13], the “interaction with iNOS protein” value is “capable of interacting with inducible-nitric oxide synthase (iNOS) protein”. Turning to inonotusol L, the “interaction with iNOS protein” value in data set [13] is “capable of interacting with inducible-nitric oxide synthase (iNOS) protein”.

Consider phellilane H, for which the reducing power result in [2] was “weak reducing power”. Moreover, in the data set on P. gingivalis, the antimicrobial activity entry is recorded as “did not show any detectable activities”.

The IC50 is the midpoint of a concentration-inhibition curve. In general, EC50 refers to the concentration giving half of the maximal effect.
